# Assay results from patent US4375478A, “Aminobenzoic acid derivatives” (Abbott Laboratories, priority 1982, dated 1983).
# Assays:
# [1] = Solubility in the ACAT incubation medium with ethanol; format: physicochemical; conditions: 1% alcohol, 1.0×10^-4 M
# Procedure: The plate was developed in a hexane:diethyl ether:acetic acid solution (90:10:1) and the cholesterol oleate area was visualized with iodine vapor. The cholesterol oleate spot (Rf=0.70) was scraped from the plate and counted in Packard Scinto Liquid. Samples were run in triplicate, and percent inhibition was calculated utilizing controls with sample solvent only. Compounds were dissolved in ethanol, and the final concentration in the incubation medium was 1.0% in the first experiment and 2.5% in the second.
# [2] = system: acyl-coenzyme A:cholesterol acyl transferase (ACAT); test: Acyl-coenzyme A:cholesterol acyl transferase (ACAT) assay in vitro, liver microsomal protein, cholesterol oleate formation; format: biochemical; conditions: for ACAT inhibition: 1.0×10^-4 M; for Cholesterol Oleate CPM + S.D. / Cholesterol Oleate Inhibition Percent: 1.0 × 10^-4 M, Ethanol
# Procedure: Test Compound (final concentration=1.0×10^-4 M) and 120 mcg of liver microsomal protein were preincubated for 5 minutes at 37° C. in 0.1 M phosphate buffer, pH 7.4, containing 6.0×10^-5 M bovine serum albumin and 0.002 M dithiothreitol (final volume=0.189 ml). Oleoyl-1-^14 C-coenzyme A, dissolved in buffer, was added in a volume of 0.011 ml so that the final concentration was 6.0×10^-5 M at a specific activity of 10.8 mCi/mmol (0.11 u Ci/tube). After incubation at 37° C. for 10 minutes, the reaction was stopped with the addition of 4.0 ml of chloroform:methanol at a ratio of 2:1 (C-M). The mixture was shaken after the addition of 0.84 ml of water, and the organic layer was evaporated to dryness. The aqueous phase was extracted again with 4.0 ml of C-M and the organic layer added to the dried residue of the first extractant. After evaporation, the residue was taken up in 0.040 ml of toluene:chloroform (4:1) and 0.020 ml were spotted on a Silica Gel-G TLC plate, 250 u thickness.
# gerbils = test: Plasma lipoprotein effects in gerbils; format: in vivo, gerbil; conditions: for HDL-C, After Test / LDL-C plus VLDL-C, After Test / Total Cholesterol, After Test / HDL-C, Before Test / LDL-C plus VLDL-C, Before Test / Total Cholesterol, Before Test / HDL-C, Percent Change / LDL-C plus VLDL-C, Percent Change / Total Cholesterol, Percent Change: gerbil plasma; for HDL-C, Before Test / LDL-C plus VLDL-C, Before Test / Total Cholesterol, Before Test: baseline before dosing; for HDL-C, Percent Change / LDL-C plus VLDL-C, Percent Change / Total Cholesterol, Percent Change: p 0.05
# Procedure: Test compounds were suspended in 0.1% methylcellulose in isotonic saline at a concentration such that the desired dose was given in a volume of 4.0 ml/kg.
# On the day before initiation of the experiment and on the day before the last dose, food was removed from the gerbils in the early evening, and at 9 a.m. the next day the animals were bled by heart puncture (0.5 ml) after light ether anesthesia; the animals were dosed approximately 2 hours after bleeding on Day 0 and 2 hours before bleeding on the last dosing day. The blood sample was mixed with a solution of EDTA, 50 mg/ml at pH 7.4, so that the final concentration was 1.5 mg/ml. After swirling, the contents were centrifuged at 1500×g for 10 minutes at 5° C. The plasma was removed from the packed cells and a portion was analyzed for cholesterol utilizing the ABA-100 and A-GENT cholesterol reagent. To 0.100 ml of another portion of plasma was added 0.010 ml of Mg^+2 -phosphotungstate reagent (prepared daily by adding one part of MgCl2, 1.5 M, and 4 parts of sodium phosphotungstate, 4%, adjusted to pH 7.4 with 1.0 N NaOH. The mixture was vortexed and allowed to remain at room temperature for 5 minutes. The sample was centrifuged at 100,000×g for 5 minutes and an aliquot of supernatant analyzed for HDL cholesterol (HDL-C). The difference between total plasma cholesterol and HDL-C (after correction for dilution) was utilized as an estimate of low density plus very low density lipoprotein cholesterol (LDL-C plus VLDL-C). Animals were treated for 5 days in the first experiment and for 4 days in the second.
# Controls and test compounds were evaluated in groups of 12 gerbils. The significance of the changes in the plasma parameters was evaluated by a paired t-test; tests of hypothesis were performed at the 0.05 significance level.
# [3] = system: acyl-coenzyme A:cholesterol acyl transferase (ACAT); conditions: 1.0×10^-4 M; cited from earlier work
# [4] = 1% alcohol (first value of the pair)
# [5] = 2.5% alcohol (second value of the pair)
# [6] = 100 mg/kg, four days, no significant difference
# [7] = 100 mg/kg, five days, ± standard deviation
# [8] = 100 mg/kg, five days, significant difference
# [9] = 123 mg/kg, four days, significant difference
smiles,measurement,setting,value
CCCCCCCCCCCCCCCCNc1ccc(C(=O)[O-])cc1.[Na+],solubility in incubation medium,[1],not completely soluble
same,ACAT inhibition,[2]; [4],26%
same,ACAT inhibition,[2]; [5],45%
same,Cholesterol Oleate CPM + S.D.,[2]; 1%,1917 ± 33 CPM
same,Cholesterol Oleate Inhibition Percent,[2]; 1%,26%
same,Cholesterol Oleate CPM + S.D.,[2]; 2.5%,735 ± 187 CPM
same,Cholesterol Oleate Inhibition Percent,[2]; 2.5%,45%
same,"HDL-C, After Test","gerbils; 100 mg/kg, four days",45.1 ± 3.8 mg/dL
same,"LDL-C plus VLDL-C, After Test","gerbils; 100 mg/kg, four days",44.9 ± 10.6 mg/dL
same,"Total Cholesterol, After Test","gerbils; 100 mg/kg, four days",90.0 ± 11.7 mg/dL
same,"HDL-C, Before Test","gerbils; 100 mg/kg, four days",47.1 ± 13.4 mg/dL
same,"LDL-C plus VLDL-C, Before Test","gerbils; 100 mg/kg, four days",45.9 ± 15.3 mg/dL
same,"Total Cholesterol, Before Test","gerbils; 100 mg/kg, four days",93.0 ± 13.3 mg/dL
same,"HDL-C, Percent Change",gerbils; [6],-4%
same,"LDL-C plus VLDL-C, Percent Change",gerbils; [6],-2%
same,"Total Cholesterol, Percent Change",gerbils; [6],-3%
"CCCCCCCCCCCCCCCCNc1c(Cl)cc(C(=O)O)cc1Cl [Compound B, Sodium (3,5-dichloro-4-hexadecylamino)benzoate]","HDL-C, Before Test",gerbils; [7],51.7 ± 11.1 mg/dL
same,"LDL-C plus VLDL-C, Before Test",gerbils; [7],44.8 ± 7.1 mg/dL
same,"Total Cholesterol, Before Test",gerbils; [7],96.6 ± 12.9 mg/dL
same,"HDL-C, After Test",gerbils; [7],42.0 ± 7.0 mg/dL
same,"LDL-C plus VLDL-C, After Test",gerbils; [7],35.8 ± 6.0 mg/dL
same,"Total Cholesterol, After Test",gerbils; [7],77.7 ± 12.3 mg/dL
same,"HDL-C, Percent Change",gerbils; [8],-19%
same,"LDL-C plus VLDL-C, Percent Change",gerbils; [8],-20%
same,"Total Cholesterol, Percent Change",gerbils; [8],-20%
same,"HDL-C, After Test","gerbils; 123 mg/kg, four days",48.8 ± 9.7 mg/dL
same,"LDL-C plus VLDL-C, After Test","gerbils; 123 mg/kg, four days",32.1 ± 8.8 mg/dL
same,"Total Cholesterol, After Test","gerbils; 123 mg/kg, four days",81.0 ± 10.2 mg/dL
same,"HDL-C, Before Test","gerbils; 123 mg/kg, four days",53.7 ± 9.9 mg/dL
same,"LDL-C plus VLDL-C, Before Test","gerbils; 123 mg/kg, four days",42.9 ± 16.8 mg/dL
same,"Total Cholesterol, Before Test","gerbils; 123 mg/kg, four days",96.6 ± 20.3 mg/dL
same,"HDL-C, Percent Change",gerbils; [9],-9%
same,"LDL-C plus VLDL-C, Percent Change",gerbils; [9],-25%
same,"Total Cholesterol, Percent Change",gerbils; [9],-10%
same,animal deaths in the group,"gerbils; gerbils, groups of 12, four days, 123 mg/kg",One animal died
CC(=O)[C@H]1CC[C@H]2[C@@H]3CCC4=CC(=O)CC[C@]4(C)[C@H]3CC[C@]12C [Progesterone],ACAT inhibition,[2]; [4],84%
same,ACAT inhibition,[2]; [5],74%
same,Cholesterol Oleate CPM + S.D.,[2]; 1%,891 ± 555 CPM
same,Cholesterol Oleate Inhibition Percent,[2]; 1%,65%
same,Cholesterol Oleate CPM + S.D.,[2]; 2.5%,453 ± 61 CPM
same,Cholesterol Oleate Inhibition Percent,[2]; 2.5%,66%
same,ACAT inhibition,[2]; at both alcohol concentrations (1% and 2.5%),65-66%
same,"ACAT inhibition, literature value of the reference standard",[3],60%
